This is an account of results in US6149948A, “Method of decreasing plasma cholesterol and triglycerides with a chromium-containing complex” (University of Alabama, priority 1999, dated 2000).

For data set [1], the system named is cultured Chinese hamster ovary cells. Particulars: cited from earlier work.
The subject of the next data set is rats. The note with it: up to 1500 μg/kg diet for up to 24 weeks; cited from earlier work.
In data set [2] the test system is pUC19 plasmid DNA. Particulars: cited from earlier work.
Data set [3] has as its system insulin-activated insulin receptor. The note with it: cited from earlier work.
A further data set deals with DH5α E. coli cells. Particulars: DNA incubated 3 hrs with complex and peroxide; ampicillin plates.
The test system of data set [4] is male Sprague Dawley rats. The data set can be described thus: 12-week chromium supplementation of rats: body and tissue masses, toxic effects.
Procedure: (§1) Four week old male Sprague Dawley rats were allowed to fed ad libitum on a commercial rat food and tap water. Rats were raised in standard plastic and stainless steel cages on a 12 hour light-dark cycle. Solid food intake and body mass were monitored daily. Twenty four rats were divided randomly into three groups of eight. […] The last group was injected with 200 μL of doubly deionized water daily and served as the control. After 12 weeks, the animals were sacrificed by carbon dioxide asphyxiation. Liver, kidney, heart, pancreas, testes, and epididymal fat were quickly harvested and weighed. Liver and kidney were placed into plastic screw-top containers and stored at -80° C. for further analysis.
The test system of data set [5] is male Sprague Dawley rats. The data set can be described thus: Plasma variables after 4, 8 and 12 weeks of supplementation. The class given is in vivo, rat. How it is done:
Solid food intake and body mass were monitored daily.
Blood was collected from the tail after four, eight, and twelve weeks of Cr or H2 O administration. Prior to blood collection, animals were fasted 12 to 15 hours.
Immediately after blood removal, 0.5 mg/mL heparin and 10 mg/mL NaF were added to the blood. Blood was next immediately centrifuged; the blood plasma was tested for glucose, total cholesterol, triglycerides, low density lipoprotein (LDL) cholesterol (week 12 only), and high density lipoprotein (HDL) cholesterol (week 12 only) using Diagnostic Kits from Sigma Chemical Co. (St. Louis, Mo.) and insulin using double antibody or antibody coated kits from ICN Biomedicals (Costa Mesa, Calif.).
Statistical analyses were performed by analysis of variance. All values are presented as mean±SEM. P values are calculated using standard deviations.

Data set [6] has as its system male Sprague Dawley rats. Particulars: rat, in vivo.
Procedure: as §1
For data set [7], the system named is pUC19 plasmid DNA.
Procedure: The reactions contain pUC19 (39 μM in base pairs) and 50 μM phosphate buffer, pH 7.0, and: Lane 2, 5 MM ascorbate; Lanes 3-7, 5 mM ascorbate and 120, 40, 4.0, 0.40, and 0.040 μM 1, respectively; Lane 8, 5 mM ascorbate and 1.2 μM Cr(pic)3 ; Lane 9, 5 mM ascorbate and 120 pM 1 under argon; Lane 10, 5 mM ascorbate, 120 μM 1, and 1 M EtOH; Lane 11, 5 mM ascorbate, 120 μM 1, and 1 M t-BuOH; Lane 12, 5 mM ascorbate, 120 μM 1, and 100 μg/mL SOD; and Lane 13, 5 mM ascorbate, 120 μl , and 100 μ/mL catalase. Reactions were allowed to proceed 60 minutes before quenching.
A typical reaction was carried out mixing aliquots of pUC19 (in 5 μM Tris, 500 EDTA buffer (pH 8.0)), reductant in H2 O, LMWCr in 50 mM NH4 OAc (pH 6.5) or 1 in H2 O, phosphate buffer (pH 7.0), and H2 O to give a final volume of 15 μL; the final phosphate concentration was 50 mM. Inhibitors were added as solutions in H2 O, solutions in phosphate buffer, or as neat liquids. Reactions were allowed to proceed 180 minutes unless otherwise noted. All reactions were quenched by addition of loading buffer (24% glycerol and 0.1% bromophenol blue). Seven microliter aliquots were loaded directly onto a 1% agarose gel and electrophoresed at 60 V. The gel was stained with ethidium bromide and was photographed on a UV transilluminator. […]
[8] abbreviates: plasma, Week 4, fasted rats, 20 μg Cr/kg daily i.v., mean ± SEM.
Setting [9] is: plasma, Week 8, fasted rats, 20 μg Cr/kg daily i.v., mean ± SEM.
Setting [10] is: plasma, Week 12, fasted rats, 20 μg Cr/kg daily i.v., mean ± SEM.

Procedure for DH5α E. coli cells: A reaction mixture containing 10 μg of pUC19, 1.5 mM 1, and 0.900 mM H2 O in 10 mM Tris, pH 8.0 was allowed to react for 3 hours at 25° C. Quench buffer was added, and the sample was immediately loaded onto a 1% agarose gel containing 0.5 μg ml^-1 of ethidium bromide. After electrophoresis in 1×TBE buffer, the band at 3.5 kB was excised from the gel, and the DNA was removed from the gel using a Qiagen gel purification kit. The eluted DNA was gel-quantitated and used without further modification for transformation.
Electrocompetent DH5α E. coli cells were electroporated using 1 μL of 0.1 μg mL^-1 of either trimer-nicked DNA or supercoiled pUC19 plasmid DNA in 50 μL of cells. The E. coli cells were rescued by adding 1 mL of SOC media (20 gL^-1 Bactotryptone, 5 gL^-1 yeast extract, 9 mM NaCl, 20 mM glucose, pH 7.5), followed by incubation at 37° C. for 1 hour. Each cell suspension was diluted 1:100 with SOC media, and 50 μL of each diluted suspension was spread on separate LB-ANM agar plates containing 80 μg mL^-1 X-gal, 100 μM IPTG, and 100 μg mL^-1 ampicillin. The X-gal and IPTG were added to facilitate detection of colonies. The plates were placed in a 37° C. incubator overnight.

Consider “chromium(III) tris(picolinate) [Cr(pic)3]”, for which, in data set [1], the DNA strand breaks result is listed as “lead to DNA strand breaks”. Besides, in the data set with rats, the acute toxic effects result is “no acute toxic effects”.

For the compound `CC(=O)[O-].CC(=O)[O-].CC(=O)[O-].CC(=O)[O-].CC(=O)[O-].CC(=O)[O-].O.O.O.[Cr+3].[Cr+3].[Cr+3].[O-2]` [acetate analogue of 1, [Cr3 O(OAc)6 (H2 O)3]^+, reference compound], in the data set on pUC19 plasmid DNA [2] (Cr(pic)3: 120 nM chromium, 5 mM ascorbic acid or thiols, acetate analogue: ascorbate), the “DNA cleavage in the presence of biological reductants (literature)” value is “unable to catalyze DNA cleavage in the presence of ascorbate”.

As to `CCC(=O)[O-].CCC(=O)[O-].CCC(=O)[O-].CCC(=O)[O-].CCC(=O)[O-].CCC(=O)[O-].O.O.O.[Cr+3].[Cr+3].[Cr+3].[O-2]` [Compound 1, [Cr3 O(O2 CCH2 CH3)6 (H2 O)3]^+], the “stimulation of insulin receptor tyrosine kinase activity” value in data set [3] is “mimic the ability of LMWCr to stimulate insulin receptor kinase activity”. Further, in the data set on DH5α E. coli cells, the “colonies of E. coli transformed with complex-nicked pUC19 versus supercoiled pUC19” value is listed as “the same number of colonies”. The “DNA cleavage (literature)” value in the data set on pUC19 plasmid DNA [2] was “not to lead to DNA cleavage”. In the data set with male Sprague Dawley rats [4] (12 weeks, 20 μg Cr/kg daily i.v.), the “toxic effects of supplementation” value is “no toxic effects were observed”. The “Tissue mass, Epididymal fat” value in the data set with male Sprague Dawley rats [4] (after 12 weeks, daily tail vein injection, 20 μg Cr per kg body mass, mean ± SEM, eight rats) was 4.44 + 0.45 grams. In the data set on male Sprague Dawley rats [5] (setting [8]), this compound had a Glucose of 168 ± 33 mg/dL, an Insulin of 99.0 ± 3.2 μIU/mL, a Total cholesterol of 65.2 ± 3.4 mg/dL and a Triglycerides of 83.3 ± 2.7 mg/dL. In the data set with male Sprague Dawley rats [5] (setting [9]), this compound yielded a Glucose of 75.5 ± 2.9 mg/dL, an Insulin of 43.3 ± 2.1 μIU/mL and a Total cholesterol of 63.8 ± 3.3 mg/dL. In the data set on male Sprague Dawley rats [5] (setting [10]), this compound came in with a Glucose of 68.2 ± 2.8 mg/dL, an HDL cholesterol of 10.7 ± 0.65 mg/dL, an Insulin of 43.0 ± 1.9 μIU/mL and an LDL cholesterol of 25.6 ± 2.4 mg/dL. In addition, in the data set with male Sprague Dawley rats [5] (setting [10]), the Total cholesterol is 46.9 ± 2.8 mg/dL and the Triglycerides is listed as 53.2 ± 3.7 mg/dL. Besides, in the data set with male Sprague Dawley rats [5] (week 12), the “LDL cholesterol concentration less than that of the control” value is given as ~40% and the “total cholesterol concentration less than that of the control” value worked out at 33%. In addition, in the data set on male Sprague Dawley rats [6], the “iron concentration of liver” value is 6.0×10^2 μg/g dry mass. Besides, the “DNA cleavage in the presence of dithiothreitol” value in the data set on pUC19 plasmid DNA [7] is “does not increase the amount of cleavage”.
